Experimental data as given in US20200325543A1, “DIAGNOSTIC METHOD” (TOLREMO THERAPEUTICS AG, priority 2017, published 2020).

Columns and labels:
Assay type in all cases: cell-based
[1] = tested on: genes associated with stemness/EMT; assay: RNA-Seq / qPCR of genes associated with stemness/EMT in melanoma cells; conditions: A375-P cells, 1 μM PLX4720, 0.5 μM AZD6244 or both, 24 h, versus 0.01% DMSO
Experimental: Data shown represent mean of independent biological triplicates ±SEM. (E) Western blot analysis of the same experiment as shown in (D). […] P-ERK1/2 levels served as positive treatment controls. Total ERK1/2 levels served as loading control. (F) A375-P cells were treated with 1 μM PLX4720, 0.5 μM AZD6244 (MEK1/2 inhibitor) or 0.01% DMSO for the indicated times and SOX2 levels were assessed by Western blot analysis. […] (G) A375-P cells were treated with 1 μM PLX4720 (BRAFi), 0.5 μM AZD6244 (MEKi), a combination of both drugs or 0.01% DMSO for the indicated times and SOX2 levels were assessed by Western blot analysis. […] For all Western blots, individual time points were assessed in at least two independent experiments. Representative data is shown.

S6K and BAD = assay: Survival signaling by Western blot in A375-P/pTRIPZ cells; conditions: A375-P/pTRIPZ-control or -SOX2 cells, PLX4720 48 h
Experimental: (A) A375-P cells were transfected with 100 nM siRNA targeting SOX2 or a negative control siRNA. Cells were then treated with PLX4720 (BRAFi) or DMSO for 48 h. 2 h before harvesting, cells were pulsed with 3 uM EdU to label cycling cells. EdU-positive cells were detected using flow cytometry. Note that SOX2 knockdown has no effect on cell proliferation when BRAF is active (DMSO) but reduces the pool of drug-tolerant, cycling cells in the BRAFi condition. Representative data is shown. (B) Quantification of experiment (A). For each condition, percentage of cycling cells upon siRNA knockdown of SOX2 was normalized to the negative control siRNA. Data shown represent mean of independent biological triplicates ±SEM. (C) A375-P cells stably transduced with pTRIPZ-SOX2 vector were treated with the indicated concentrations of doxycycline for three days or with 1 μM PLX4720 (PLX) for 24 h. SOX2 overexpression was confirmed by Western blot analysis. Lamin A served as loading control. Individual concentrations were assessed in at least two independent experiments. Representative results are shown. […] EdU-positive cells were detected using flow cytometry. […] Cell viability was assessed by PrestoBlue assay and IC50 values were calculated. […] Survival signaling was assessed by Western blot. […]

SOX2 = SOX2 levels by Western blot in A375-P cells; conditions: 1 μM PLX4720, 0.5 μM AZD6244 or both, indicated times, versus 0.01% DMSO
Experimental: (A) A375-P cells were treated with PLX4720 (BRAFi) or DMSO for 6 h, RNA was isolated and RNA-Seq was performed. […] Differentially expressed genes (DEGs) selected for pathway analysis are represented by red and blue dots depending on the direction of the transcriptional change (red genes are induced upon PLX4720, blue genes are repressed upon PLX4720). (B) Bar graphs showing the five top pathways with significant enrichment of the analyzed DEGs. Longer bars indicate stronger significance. (C) Top deregulated genes upon treatment with PLX4720 (left column). Top genes induced and repressed by PLX4720 are shown in separate lists. (D) Indicated cell lines were treated with 1 μM PLX4720 or 0.01% DMSO (0 h) for the indicated times and the expressional changes of selected genes associated with stemness/EMT were confirmed by qPCR. […] As key player in the sternness signature, SOX2 levels were assessed. […] (F) A375-P cells were treated with 1 μM PLX4720, 0.5 μM AZD6244 (MEK1/2 inhibitor) or 0.01% DMSO for the indicated times and SOX2 levels were assessed by Western blot analysis. […] (G) A375-P cells were treated with 1 μM PLX4720 (BRAFi), 0.5 μM AZD6244 (MEKi), a combination of both drugs or 0.01% DMSO for the indicated times and SOX2 levels were assessed by Western blot analysis. […] For all Western blots, individual time points were assessed in at least two independent experiments. […]

SMILES: CCCS(=O)(=O)Nc1ccc(F)c(C(=O)c2c[nH]c3ncc(Cl)cc23)c1F [PLX4720]
- expressional changes of selected genes associated with stemness/EMT (qPCR) [1]: comparable effects on transcript levels
- Survival signaling via S6K and BAD (Western blot) (S6K and BAD): repressed
- SOX2 levels (Western blot) (SOX2): induce similar SOX2 levels
